The conditions of series [1]: cited from earlier work.
The subject of series [2] is MDA-MB-231 breast cancer tumours subcutaneously xenografted into the SCID mice. Kind of series: Growth of MDA-MB-231 tumours xenografted into SCID mice. Format: in vivo. Conditions: CuET 1 mg/kg i.p., 5 days ON and 2 days OFF. The protocol:
To test directly effect of CuET-albumin nanoparticles we used MDA-MB-231 and AMO1 models. MDA-MB-231 was injected (5*10^6 cells were transplanted s.c.) to grow tumours in SCID mice (Anlab, CZ). Similarly, the AMO-1 xenografts were expanded in SCID mice. Each group consisted of 10 animals, each bearing two tumours. CuET was formulated as nanoparticulate system in mouse serum albumin according to Example 12 or as the neat CuET powder (obtained from TOKYO CHEMICAL […] CO., LTD.) dissolved in olive oil which is a standard formulation for non-polar compounds applied intraperitoneally in the mice experiments to final concentration 1 mg/ml. Olive oil alone and mouse serum albumin solutions were used as the vehicle controls. All solutions were applied intraperitoneally in a schedule 5 days ON and 2 days OFF, the CuET was applied in the final dose 1 mg per kg of body weight. All aspects of the animal studies met the accepted criteria for the care and experimental use of laboratory animals.

The structures appear in SMILES notation.

For the compound `CCN(CC)C(=S)[S-].CCN(CC)C(=S)[S-].[Cu+2]` [neat CuET powder, bis(diethyldithiocarbamate)copper(II)], in series [1], the “solubility constant in water” value is “in the range of nanograms per litre”. The “effect on tumour growth” value in series [2] is listed as “Only the CuET-albumin nanoparticle shows significant effect”.
